Test results reported in PubChem BioAssay AID192 (DTP/NCI, 2004).
Where “and” joins values, the source holds several entries; their conditions need not be identical. Equal entries are not always repeated. Inconclusive results and toxic doses are left out.

Test system: BDF1 mice, B16 melanoma ip, median survival T/C
Assay: NCI In Vivo Anticancer Drug Screen. Data for tumor model B16 Melanoma (intraperitoneal) in B6D2F1 (BDF1) mice
Conditions: endpoint: median survival time, higher = longer survival
Procedure, shortened: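 Values are ratios of treated (T) to vehicle-control (C) measurements of survival or tumor size in tumor-bearing mice.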

[1] = dose: 100.0 mg/kg/injection, schedule: Q01DX009 (ip), vehicle: Klucel (hydroxypropylcellulose) (HPC)
[2] = dose: 50.0 mg/kg/injection, schedule: Q01DX009 (ip), vehicle: saline with Tween-80
[3] = dose: 100.0 mg/kg/injection, schedule: Q01DX009 (ip), vehicle: saline with Tween-80
[4] = dose: 25.0 mg/kg/injection, schedule: Q01DX009 (ip), vehicle: Klucel (hydroxypropylcellulose) (HPC)

With `CCC1CC2CC(c3cc4c(cc3OC)N(C)C3C(O)(C(=O)OC)C(OC(C)=O)C5(CC)C=CCN6CCC43C65)c3[nH]c4ccccc4c3CCN(C1)C2` (stereo not given) the T/C (dose: 0.25 mg/kg/injection, schedule: Q01DX009 (ip), vehicle: Klucel (hydroxypropylcellulose) (HPC)) was 108 % of control, the T/C (dose: 0.5 mg/kg/injection, schedule: Q01DX009 (ip), vehicle: Klucel (hydroxypropylcellulose) (HPC)) was 94 % of control and the T/C (dose: 1.0 mg/kg/injection, schedule: Q01DX009 (ip), vehicle: Klucel (hydroxypropylcellulose) (HPC)) was 104 % of control. The T/C (dose: 2.0 mg/kg/injection, schedule: Q01DX009 (ip), vehicle: Klucel (hydroxypropylcellulose) (HPC)) was 111 % of control, the T/C (dose: 4.0 mg/kg/injection, schedule: Q01DX009 (ip), vehicle: Klucel (hydroxypropylcellulose) (HPC)) was 108 % of control and the T/C (dose: 8.0 mg/kg/injection, schedule: Q01DX009 (ip), vehicle: Klucel (hydroxypropylcellulose) (HPC)) was 104 % of control.

In the case of `CCC(=O)N(C)[C@@H](C)C(=O)O[C@H]1CC(=O)N(C)c2cc(cc(OC)c2Cl)C/C(C)=C/C=C[C@@H](OC)[C@@]2(O)C[C@H](OC(=O)N2)[C@@H](C)[C@@H]2O[C@@]12C`, the T/C (dose: 2.5 micrograms/kg/injection, schedule: Q01DX009 (ip), vehicle: saline + alcohol) is reported as 156 % of control, the T/C (dose: 3.8 micrograms/kg/injection, schedule: Q01DX009 (ip), vehicle: saline + alcohol) is reported as 171 % of control and the T/C (dose: 5.0 micrograms/kg/injection, schedule: Q01DX009 (ip), vehicle: saline + alcohol) is reported as 167 % of control and 171 % of control. For the same compound, the T/C (dose: 7.5 micrograms/kg/injection, schedule: Q01DX009 (ip), vehicle: saline + alcohol) was 191 % of control, the T/C (dose: 10.0 micrograms/kg/injection, schedule: Q01DX009 (ip), vehicle: saline + alcohol) was 168 % of control and 181 % of control and the T/C (dose: 15.0 micrograms/kg/injection, schedule: Q01DX009 (ip), vehicle: saline + alcohol) was 151 % of control and 196 % of control. The T/C (dose: 30.0 micrograms/kg/injection, schedule: Q01DX009 (ip), vehicle: saline + alcohol) was 103 % of control.

With `Cc1ccc(CNc2cccc([N+](=O)[O-])c2)cc1` the T/C [1] was 100 % of control and the T/C (dose: 200.0 mg/kg/injection, schedule: Q01DX009 (ip), vehicle: Klucel (hydroxypropylcellulose) (HPC)) was 97 % of control.

With `C=CCNc1ccc(OC)cc1` the T/C [2] was 95 % of control and the T/C [3] was 107 % of control.

In the case of `CC(C)CC(NC(=O)C(O)C(N)Cc1ccccc1)C(=O)O` (stereo not given), the T/C (dose: 0.05 mg/kg/injection, schedule: Q01DX009 (oral), vehicle: saline) is reported as 97 % of control, the T/C (dose: 0.5 mg/kg/injection, schedule: Q01DX009 (oral), vehicle: saline) is reported as 97 % of control and the T/C (dose: 5.0 mg/kg/injection, schedule: Q01DX009 (oral), vehicle: saline) is reported as 96 % of control.

In the case of `Cc1c2cnccc2c(C)c2c1c1ccccc1n2CC1CO1` (stereo not given), the T/C (dose: 3.75 mg/kg/injection, schedule: Q01DX009 (ip), vehicle: Klucel (hydroxypropylcellulose) (HPC)) is reported as 117 % of control, the T/C (dose: 7.5 mg/kg/injection, schedule: Q01DX009 (ip), vehicle: Klucel (hydroxypropylcellulose) (HPC)) is reported as 114 % of control and the T/C (dose: 15.0 mg/kg/injection, schedule: Q01DX009 (ip), vehicle: Klucel (hydroxypropylcellulose) (HPC)) is reported as 121 % of control.

`CC(=O)Nc1ccc([N+](=O)[O-])cc1` was tested, and the T/C (dose: 12.5 mg/kg/injection, schedule: Q01DX009 (ip), vehicle: alcohol) was 95 % of control, the T/C (dose: 25.0 mg/kg/injection, schedule: Q01DX009 (ip), vehicle: alcohol) was 102 % of control and the T/C (dose: 50.0 mg/kg/injection, schedule: Q01DX009 (ip), vehicle: alcohol) was 93 % of control. For the same compound, the T/C [3] was 88 % of control.

In the case of `c1ccc([B-]2([C+]3CCCCC3)N3CCCCC3C3CCCCN32)cc1` (stereo not given), the T/C (dose: 12.5 mg/kg/injection, schedule: Q01DX009 (ip), vehicle: Klucel (hydroxypropylcellulose) (HPC)) is reported as 106 % of control and the T/C [4] is reported as 93 % of control.

With `O=S(=O)(O)O.[O]=[V]` the T/C (dose: 1.56 mg/kg/injection, schedule: Q01DX009 (ip), vehicle: saline with Tween-80) was 87 % of control, the T/C (dose: 3.13 mg/kg/injection, schedule: Q01DX009 (ip), vehicle: saline with Tween-80) was 97 % of control and the T/C (dose: 6.25 mg/kg/injection, schedule: Q01DX009 (ip), vehicle: saline with Tween-80) was 94 % of control.

In the case of `ClC1CCCC[N-]1.ClC1CCCC[N-]1.[Cl][Pt+2][Cl]` (stereo not given), the T/C (dose: 12.5 mg/kg/injection, schedule: Q01DX009 (ip), vehicle: saline with Tween-80) is reported as 91 % of control, the T/C (dose: 25.0 mg/kg/injection, schedule: Q01DX009 (ip), vehicle: saline with Tween-80) is reported as 97 % of control and the T/C [2] is reported as 89 % of control. The T/C [3] was 108 % of control and the T/C (dose: 200.0 mg/kg/injection, schedule: Q01DX009 (ip), vehicle: saline with Tween-80) was 105 % of control.

With `COc1cc(C(=O)O)c(Br)cc1C` the T/C (dose: 100.0 mg/kg/injection, schedule: Q04DX003 (ip), vehicle: Klucel (hydroxypropylcellulose) (HPC)) was 105 % of control and the T/C (dose: 200.0 mg/kg/injection, schedule: Q04DX003 (ip), vehicle: Klucel (hydroxypropylcellulose) (HPC)) was 97 % of control.

In the case of `COc1cc2c(cc1OC)C(c1ccc(O)c(O)c1)CNC2` (stereo not given), the T/C (dose: 50.0 mg/kg/injection, schedule: Q04DX003 (ip), vehicle: saline with Tween-80) is reported as 99 % of control, the T/C (dose: 100.0 mg/kg/injection, schedule: Q04DX003 (ip), vehicle: saline with Tween-80) is reported as 89 % of control and the T/C (dose: 200.0 mg/kg/injection, schedule: Q04DX003 (ip), vehicle: saline with Tween-80) is reported as 90 % of control.

With `Nc1ccccc1SC1CC(=O)N(c2ccccc2)C1=O` (stereo not given) the T/C [4] was 97 % of control, the T/C (dose: 50.0 mg/kg/injection, schedule: Q01DX009 (ip), vehicle: Klucel (hydroxypropylcellulose) (HPC)) was 91 % of control and the T/C [1] was 90 % of control and 92 % of control.
